# Laboratory results as given in ChEMBL document CHEMBL1139590, “Design, synthesis, and biological evaluation of novel human 5'-deoxy-5'-methylthioadenosine phosphorylase (MTAP) substrates” (Bioorg Med Chem Lett, 2005).
# B1: S-methyl-5'-thioadenosine phosphorylase (Homo sapiens), Q13126 (protein)
# chain: MASGTTTTAVKIGIIGGTGLDDPEILEGRTEKYVDTPFGKPSDALILGKIKNVDCVLLARHGRQHTIMPSKVNYQANIWALKEEGCTHVIVTTACGSLREEIQPGDIVIIDQFIDRTTMRPQSFYDGSHSCARGVCHIPMAEPFCPKTREVLIETAKKLGLRCHSKGTMVTIEGPRFSSRAESFMFRTWGADVINMTTVPEVVLAKEAGICYASIAMATDYDCWKEHEEAVSVDRVLKTLKENANKAKSLLLTTIPQIGSTEWSETLHNLKNMAQFSVLLPRH
# How the values were obtained:
# [1] = molecular target: T1, S-methyl-5'-thioadenosine phosphorylase (Homo sapiens) (UniProt Q13126); assay: Kcat against human methylthioadenosine phosphorylase expressed in Escherichia coli BL21 DE3 cells
# T1 sequence (whole entry): B1 chain
# [2] = molecular target: T1, S-methyl-5'-thioadenosine phosphorylase (Homo sapiens); assay: Ratio of Kcat to Km against human Methylthioadenosine phosphorylase
# [3] = substrate: CC(C)(C)SC[C@H]1O[C@@H](n2cnc3c(N)ncnc32)[C@H](O)[C@@H]1O; assay: (§1) Km against human methylthioadenosine phosphorylase expressed in Escherichia coli BL21 DE3 cells
# [4] = substrate: CC(C)CCSC[C@H]1O[C@@H](n2cnc3c(N)ncnc32)[C@H](O)[C@@H]1O; assay: as §1
# [5] = substrate: CC(C)CSC[C@H]1O[C@@H](n2cnc3c(N)ncnc32)[C@H](O)[C@@H]1O; assay: as §1
# [6] = substrate: CCC(C)CSC[C@H]1O[C@@H](n2cnc3c(N)ncnc32)[C@H](O)[C@@H]1O; assay: as §1
# [7] = substrate: CCCCSC[C@H]1O[C@@H](n2cnc3c(N)ncnc32)[C@H](O)[C@@H]1O; assay: as §1
# [8] = substrate: CCSC[C@H]1O[C@@H](n2cnc3c(N)ncnc32)[C@H](O)[C@@H]1O; assay: as §1
# [9] = substrate: COc1ccc(SC[C@H]2O[C@@H](n3cnc4c(N)ncnc43)[C@H](O)[C@@H]2O)cc1; assay: as §1
# [10] = substrate: CSC[C@@H]1C[C@@H](O)[C@H](n2cnc3c(N)ncnc32)O1; assay: as §1
# [11] = substrate: CSC[C@H]1O[C@@H](n2cnc3c(N)ncnc32)C(N=[N+]=[N-])[C@@H]1O; assay: as §1
# [12] = substrate: CSC[C@H]1O[C@@H](n2cnc3c(N)ncnc32)C[C@@H]1O; assay: as §1
# [13] = substrate: CSC[C@H]1O[C@@H](n2cnc3c(N)ncnc32)[C@H](N)[C@@H]1O; assay: as §1
# [14] = substrate: C[C@H]1O[C@@H](n2cnc3c(N)ncnc32)[C@H](O)[C@@H]1O; assay: as §1
# [15] = substrate: Cc1ccc(SC[C@H]2O[C@@H](n3cnc4c(N)ncnc43)[C@H](O)[C@@H]2O)cc1; assay: as §1
# [16] = substrate: Cc1cccc(SC[C@H]2O[C@@H](n3cnc4c(N)ncnc43)[C@H](O)[C@@H]2O)c1; assay: as §1
# [17] = substrate: Cc1ccccc1SC[C@H]1O[C@@H](n2cnc3c(N)ncnc32)[C@H](O)[C@@H]1O; assay: as §1
# [18] = substrate: Nc1ncnc2c1ncn2[C@@H]1O[C@H](CCc2ccccc2)[C@@H](O)[C@H]1O; assay: as §1
# [19] = substrate: Nc1ncnc2c1ncn2[C@@H]1O[C@H](CNc2ccccc2)[C@@H](O)[C@H]1O; assay: as §1
# [20] = substrate: Nc1ncnc2c1ncn2[C@@H]1O[C@H](COc2ccccc2)[C@@H](O)[C@H]1O; assay: as §1
# [21] = substrate: Nc1ncnc2c1ncn2[C@@H]1O[C@H](CSC2CCCC2)[C@@H](O)[C@H]1O; assay: as §1
# [22] = substrate: Nc1ncnc2c1ncn2[C@@H]1O[C@H](CSC2CCCCC2)[C@@H](O)[C@H]1O; assay: as §1
# [23] = substrate: Nc1ncnc2c1ncn2[C@@H]1O[C@H](CSCCO)[C@@H](O)[C@H]1O; assay: as §1
# [24] = substrate: Nc1ncnc2c1ncn2[C@@H]1O[C@H](CSCCc2ccccc2)[C@@H](O)[C@H]1O; assay: as §1
# [25] = substrate: Nc1ncnc2c1ncn2[C@@H]1O[C@H](CSCCc2ccccn2)[C@@H](O)[C@H]1O; assay: as §1
# [26] = substrate: Nc1ncnc2c1ncn2[C@@H]1O[C@H](CSCc2ccccc2)[C@@H](O)[C@H]1O; assay: as §1
# [27] = substrate: Nc1ncnc2c1ncn2[C@@H]1O[C@H](CSc2ccc(C(F)(F)F)cc2)[C@@H](O)[C@H]1O; assay: as §1
# [28] = substrate: Nc1ncnc2c1ncn2[C@@H]1O[C@H](CSc2ccc3ccccc3n2)[C@@H](O)[C@H]1O; assay: as §1
# [29] = substrate: Nc1ncnc2c1ncn2[C@@H]1O[C@H](CSc2ccccc2)[C@@H](O)[C@H]1O; assay: as §1
# [30] = substrate: Nc1ncnc2c1ncn2[C@@H]1O[C@H](CSc2ccccn2)[C@@H](O)[C@H]1O; assay: as §1
# [31] = substrate: Nc1ncnc2c1ncn2[C@@H]1O[C@H](CSc2ccncc2)[C@@H](O)[C@H]1O; assay: as §1
# [32] = substrate: Nc1ncnc2c1ncn2[C@@H]1O[C@H](CSc2ncc[nH]2)[C@@H](O)[C@H]1O; assay: as §1
# [33] = substrate: Nc1ncnc2c1ncn2[C@@H]1O[C@H](CSc2nccs2)[C@@H](O)[C@H]1O; assay: as §1
molecule,measurement,setting,value
CCSC[C@H]1O[C@@H](n2cnc3c(N)ncnc32)[C@H](O)[C@@H]1O,K cat,[1],2.9 s⁻¹
same,Ratio,[2],1.6 µM⁻¹ s⁻¹
Nc1ncnc2c1ncn2[C@@H]1O[C@H](CSc2ccccn2)[C@@H](O)[C@H]1O,K cat,[1],3.44 s⁻¹
same,Ratio,[2],0.66 µM⁻¹ s⁻¹
CSC[C@@H]1C[C@@H](O)[C@H](n2cnc3c(N)ncnc32)O1,K cat,[1],0.004 s⁻¹
same,Ratio,[2],0.001 µM⁻¹ s⁻¹
CSC[C@H]1O[C@@H](n2cnc3c(N)ncnc32)C[C@@H]1O,K cat,[1],0.28 s⁻¹
same,Ratio,[2],0.09 µM⁻¹ s⁻¹
CC(C)(C)SC[C@H]1O[C@@H](n2cnc3c(N)ncnc32)[C@H](O)[C@@H]1O,K cat,[1],0.85 s⁻¹
same,Ratio,[2],0.05 µM⁻¹ s⁻¹
Cc1cccc(SC[C@H]2O[C@@H](n3cnc4c(N)ncnc43)[C@H](O)[C@@H]2O)c1,K cat,[1],2.4 s⁻¹
same,Ratio,[2],1.2 µM⁻¹ s⁻¹
Nc1ncnc2c1ncn2[C@@H]1O[C@H](CSC2CCCC2)[C@@H](O)[C@H]1O,K cat,[1],1.5 s⁻¹
same,Ratio,[2],0.47 µM⁻¹ s⁻¹
Nc1ncnc2c1ncn2[C@@H]1O[C@H](CSCc2ccccc2)[C@@H](O)[C@H]1O,K cat,[1],2.5 s⁻¹
same,Ratio,[2],0.53 µM⁻¹ s⁻¹
Nc1ncnc2c1ncn2[C@@H]1O[C@H](CSc2ccccc2)[C@@H](O)[C@H]1O,K cat,[1],1.5 s⁻¹
same,Ratio,[2],0.5 µM⁻¹ s⁻¹
Nc1ncnc2c1ncn2[C@@H]1O[C@H](CSCCc2ccccc2)[C@@H](O)[C@H]1O,K cat,[1],2.14 s⁻¹
same,Ratio,[2],0.43 µM⁻¹ s⁻¹
CC(C)CCSC[C@H]1O[C@@H](n2cnc3c(N)ncnc32)[C@H](O)[C@@H]1O,K cat,[1],5.5 s⁻¹
same,Ratio,[2],1.96 µM⁻¹ s⁻¹
COc1ccc(SC[C@H]2O[C@@H](n3cnc4c(N)ncnc43)[C@H](O)[C@@H]2O)cc1,K cat,[1],0.8 s⁻¹
same,Ratio,[2],0.11 µM⁻¹ s⁻¹
CCCCSC[C@H]1O[C@@H](n2cnc3c(N)ncnc32)[C@H](O)[C@@H]1O,K cat,[1],5.9 s⁻¹
same,Ratio,[2],1.48 µM⁻¹ s⁻¹
CSC[C@H]1O[C@@H](n2cnc3c(N)ncnc32)[C@H](N)[C@@H]1O,K cat,[1],0.67 s⁻¹
same,Ratio,[2],0.022 µM⁻¹ s⁻¹
CSC[C@H]1O[C@@H](n2cnc3c(N)ncnc32)C(F)[C@@H]1O (some centres undefined),K cat,[1],0.0004 s⁻¹
CCC(C)CSC[C@H]1O[C@@H](n2cnc3c(N)ncnc32)[C@H](O)[C@@H]1O (some centres undefined),K cat,[1],4.2 s⁻¹
same,Ratio,[2],0.84 µM⁻¹ s⁻¹
Nc1ncnc2c1ncn2[C@@H]1O[C@H](CSc2ccc3ccccc3n2)[C@@H](O)[C@H]1O,K cat,[1],3.16 s⁻¹
same,Ratio,[2],0.46 µM⁻¹ s⁻¹
B1,Km,[3],17 µM
same,Km,[4],2.8 µM
same,Km,[5],3.1 µM
same,Km,[6],5 µM
same,Km,[7],4 µM
same,Km,[8],1.8 µM
same,Km,[9],7 µM
same,Km,[10],3.9 µM
same,Km,[11],3600 µM
same,Km,[12],3.1 µM
same,Km,[13],30 µM
same,Km,[14],6 µM
same,Km,[15],1.5 µM
same,Km,[16],2 µM
same,Km,[17],5.6 µM
same,Km,[18],1.3 µM
same,Km,[19],8.5 µM
same,Km,[20],12 µM
same,Km,[21],3.2 µM
same,Km,[22],3.5 µM
same,Km,[23],25 µM
same,Km,[24],5 µM
same,Km,[25],10.2 µM
same,Km,[26],4.6 µM
same,Km,[27],1.7 µM
same,Km,[28],6.9 µM
same,Km,[29],3 µM
same,Km,[30],5.2 µM
same,Km,[31],0.88 µM
same,Km,[32],9 µM
same,Km,[33],3.4 µM
